A short description of this data set: Antioxidant activity in soybean large unilamellar vesicles assessed as inhibition of AAPH-induced lipid peroxidation compound added prior to AAPH induction measured after 90 mins by UV-visible absorption spectrometric analysis. Format: physicochemical.
The term IC50 denotes the concentration that gives 50% inhibition. Take `CCCCCCCC/C=C/CCCCCCCc1c(C)c(O)cc2c1[nH]c1ccccc12`: the IC50 amounted to 0.16 µM.

In the case of `Cc1cc2[nH]c3ccccc3c2cc1O`, the IC50 came out at 1 µM.

As to `O=c1c(O)c(-c2ccc(O)c(O)c2)oc2cc(O)cc(O)c12` [QUERCETIN], the IC50 was 0.2 µM.

Take VITAMIN E: the IC50 was 0.8 µM.

The values are drawn from ChEMBL document CHEMBL3593180, “Lipocarbazole, an efficient lipid peroxidation inhibitor anchored in the membrane” (Bioorg Med Chem, 2015).
